In PubChem BioAssay (NCI):
Where “and” joins values, the source holds several entries; their conditions need not be identical. Equal entries are not always repeated.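 Exposure lasted 48 hours, with cells grown in 96-well plates and compounds tested at five concentrations. Here, GI50 denotes the concentration required for 50% inhibition of growth. TGI: concentration producing complete growth inhibition.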

Assays:
Test in all cases: NCI anticancer screen, dose series, 48 h
786-0 renal = tested on: 786-0 renal
OVCAR-5 ovarian = tested on: OVCAR-5 ovarian
A549 NSCLC = tested on: A549 NSCLC
T-47D breast = tested on: T-47D breast
SK-MEL-28 melanoma = tested on: SK-MEL-28 melanoma
HOP-62 NSCLC = tested on: HOP-62 NSCLC
UACC-62 melanoma = tested on: UACC-62 melanoma
IGROV1 ovarian = tested on: IGROV1 ovarian
MDA-MB-435 = tested on: MDA-MB-435
UACC-257 melanoma = tested on: UACC-257 melanoma
MOLT-4 leukemia = tested on: MOLT-4 leukemia
OVCAR-8 ovarian = tested on: OVCAR-8 ovarian
CCRF-CEM leukemia = tested on: CCRF-CEM leukemia
CAKI-1 renal = tested on: CAKI-1 renal

| SMILES | TGI (786-0 renal) [µM] | TGI (OVCAR-5 ovarian) [µM] | TGI (A549 NSCLC) | TGI (T-47D breast) [µM] | TGI (SK-MEL-28 melanoma) [µM] | TGI (HOP-62 NSCLC) [µM] | TGI (UACC-62 melanoma) [µM] | TGI (IGROV1 ovarian) [µM] | TGI (MDA-MB-435) | TGI (UACC-257 melanoma) [µM] | TGI (MOLT-4 leukemia) [µM] | TGI (OVCAR-8 ovarian) [µM] | GI50 (OVCAR-5 ovarian) | GI50 (IGROV1 ovarian) | GI50 (MDA-MB-435) | GI50 (UACC-257 melanoma) [µM] | TGI (CCRF-CEM leukemia) [µM] | GI50 (OVCAR-8 ovarian) | TGI (CAKI-1 renal) [µM] |
| --- | --- | --- | --- | --- | --- | --- | --- | --- | --- | --- | --- | --- | --- | --- | --- | --- | --- | --- | --- |
| CCCC[P+](CCCC)(CCCC)C(C(=O)OC)C(C(=O)OC)=C1SC(C(=O)OC)=C(C(=O)OC)S1 (configuration not stated) | > 100 | > 100 | > 100 µM | > 100 | > 100 | > 100 | > 100 | > 100 | > 100 µM | > 100 | > 100 | > 100 |  |  |  |  |  |  |  |
| CCCCn1c(C)c(C)c2c1NN=C(C#N)S2(=O)=O | > 100 | > 100 | > 100 µM | > 100 | > 100 | > 100 | > 100 | > 100 | > 100 µM | > 100 | > 100 | > 100 |  |  |  |  |  |  |  |
| CC[C@@]1(O)C(=O)OCc2c1cc1n(c2=O)Cc2c-1nc1ccccc1c2C=Nc1ccc(N[C@@H]2c3cc4c(cc3[C@@H](c3cc(OC)c(O)c(OC)c3)[C@H]3C(=O)OC[C@@H]32)OCO4)cc1 | 0.329 |  | 15.6 µM and 1.84 µM |  | > 100 |  |  |  | 12.5 µM and > 100 µM |  | > 100 | 0.263 | 0.545 µM and 0.141 µM | 0.274 µM and 0.132 µM | 0.295 µM and 0.188 µM | 0.354 | > 100 | 0.0264 µM and 0.016 µM |  |
| CC(=O)N1c2ccccc2C2=NN=C(N(C)C)SC21 (configuration not stated) | 12.5 | 18.1 | 11.8 µM | 14.9 | 15.3 | 23.4 |  |  | 31.3 µM | 12.7 | > 100 | 12.1 |  |  |  |  | 5.31 |  |  |
| COc1ccc(-c2cc(-c3ccccc3)c3c(n2)-c2ccccc2NC(=O)C3)cc1 | > 100 | > 100 | > 100 µM | > 100 | > 100 | > 100 | > 100 | 52.6 | > 100 µM | > 100 |  | 30.1 |  |  |  |  |  |  | > 100 |
| CCOC(=O)CCN1C(=O)c2ccc(NC(=O)C(=O)O)cc2S1(=O)=O | > 100 | > 100 | > 100 µM |  | > 100 | > 100 | > 100 | > 100 | > 100 µM | > 100 | > 100 | > 100 |  |  |  |  | > 100 |  | > 100 |
| Brc1nc2c3ccccc3ncn2c1Br | > 100 | > 100 | > 100 µM |  | > 100 | > 100 | 49.2 | > 100 |  | > 100 | 84.6 | > 100 |  |  |  |  | > 100 |  | 79.5 |
| CCOC(=O)/C(=C\NC[C@@H](C)O)c1nc2ccccc2[nH]1 | > 100 | > 100 | > 100 µM |  | > 100 | > 100 | > 100 | > 100 | > 100 µM | > 100 |  | > 100 |  |  |  |  |  |  | > 100 |
| CC(C)(C)c1ccc(Oc2ccc(C#N)c(C#N)c2)c(C(C)(C)C)c1 | > 100 | > 100 | > 100 µM |  | > 100 | > 100 | > 100 | > 100 |  | > 100 | 52.9 | > 100 |  |  |  |  | > 66.2 |  | > 100 |
| COC(=O)CC[N+]1([O-])CC1 | > 100 | > 100 | > 100 µM | > 100 | > 100 | > 100 | > 100 | > 100 | > 100 µM | > 100 | > 100 | > 100 |  |  |  |  | > 100 |  |  |
| COc1ccc2c(c1OC)C(Br)CCC(Br)(Br)C2=O (configuration not stated) | 15.3 | 31.8 | 29 µM | 43 | 29.3 | 36.7 | 27.7 | 18.8 | 19.3 µM | 27.7 | 8.32 | 21.9 |  |  |  |  |  |  | 3.24 |
| CC12CC(=O)OC(Cc3ccccc31)O2 (configuration not stated) | > 100 |  | > 100 µM |  | > 100 | > 100 | > 100 | > 100 |  | > 100 | > 100 | > 100 |  |  |  |  | > 100 |  |  |
| c1ccc2nc3c(nc2c1)sc1nc2ccccc2n13 | > 100 | > 100 | > 100 µM | > 100 |  |  | > 100 | > 100 | > 100 µM | > 100 | > 100 | > 100 |  |  |  |  | > 100 |  | > 100 |
| Cc1ccc([N+](=O)[O-])cc1S(=O)(=O)Nc1ccc(C2=NOC(c3ccccc3)C2)cc1 (configuration not stated) | 35.6 | > 100 | > 100 µM | 51.1 | > 100 | 22.9 | 18.3 | > 100 |  | 79.6 | 9.23 | > 100 |  |  |  |  | 59.2 |  | 32.7 |
| N#CC12CCC(O)C(CC1)C2=O (configuration not stated) | > 100 | > 100 | > 100 µM |  | > 100 | > 100 | > 100 | > 100 |  | > 100 | > 100 | > 100 |  |  |  |  | > 100 |  | > 100 |
| Cc1ccc(-n2nnc3c(NNc4ccccc4)n[nH]c(=O)c32)cc1 | > 100 | > 100 | > 100 µM |  | > 100 | > 100 |  |  | > 100 µM | > 100 | > 100 | > 100 |  |  |  |  | > 100 |  | > 100 |
| C=C[C@@]1(C)CC(=O)[C@]2(O)[C@@]3(C)[C@@H](OC(C)=O)CCC(C)(C)[C@@H]3[C@H](O)[C@H](OC(C)=O)[C@@]2(C)O1 | > 100 | > 100 | > 100 µM | > 100 | > 100 | > 100 | > 100 | > 100 | > 100 µM | > 100 | > 100 | > 100 |  |  |  |  |  |  | > 100 |
| CC1CC/C(=C\c2ccc(Cl)cc2)C(=O)/C1=C\c1ccc(Cl)cc1 (configuration not stated) | > 100 | 44.6 | > 100 µM | > 100 | > 100 | 57.9 | 57.3 | 46.9 | > 100 µM | > 100 |  | > 100 |  |  |  |  | > 100 |  | 44.9 |
